From US20120220581A1, “IMIDAZO[1,2-b]PYRIDAZINE DERIVATIVES AND THEIR USE AS PDE10 INHIBITORS” (Janssen-Cilag, S.A., priority 2009, published 2012)

Columns and labels:
[1] = molecular target: T1, Rat recombinant PDE10A (rPDE10A2) (Rattus norvegicus, UniProt Q9QYJ6); assay: In vitro assay PDE10A (SPA, 3H-cAMP); assay type: biochemical; conditions: pIC50 corresponds to the −log IC50 expressed in mol/L; read-out: PDE10A2 pIC50 (converted)
T1 construct: inferred from the Ni metal chelate purification; made in house; host or cells: Sf9 insect cells (baculovirus)
T1 sequence (Q9QYJ6 1-794): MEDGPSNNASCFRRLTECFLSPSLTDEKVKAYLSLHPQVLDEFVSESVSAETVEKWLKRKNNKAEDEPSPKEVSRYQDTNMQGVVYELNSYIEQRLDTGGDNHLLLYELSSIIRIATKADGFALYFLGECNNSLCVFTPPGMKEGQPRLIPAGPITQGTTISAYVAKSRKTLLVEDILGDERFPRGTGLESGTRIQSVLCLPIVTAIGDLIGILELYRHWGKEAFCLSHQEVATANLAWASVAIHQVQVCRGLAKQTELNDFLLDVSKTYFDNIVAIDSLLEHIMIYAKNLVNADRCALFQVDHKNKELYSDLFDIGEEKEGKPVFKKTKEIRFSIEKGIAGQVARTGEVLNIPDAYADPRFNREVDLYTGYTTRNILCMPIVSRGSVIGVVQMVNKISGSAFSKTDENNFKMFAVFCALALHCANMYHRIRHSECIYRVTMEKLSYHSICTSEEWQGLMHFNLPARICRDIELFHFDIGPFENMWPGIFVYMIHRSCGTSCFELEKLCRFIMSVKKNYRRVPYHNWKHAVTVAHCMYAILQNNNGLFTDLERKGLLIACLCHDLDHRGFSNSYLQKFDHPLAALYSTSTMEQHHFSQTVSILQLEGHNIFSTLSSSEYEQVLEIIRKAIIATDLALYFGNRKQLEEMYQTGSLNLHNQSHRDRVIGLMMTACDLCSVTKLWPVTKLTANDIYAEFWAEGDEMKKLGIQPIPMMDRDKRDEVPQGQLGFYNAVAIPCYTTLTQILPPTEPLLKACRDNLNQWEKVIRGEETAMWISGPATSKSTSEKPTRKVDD
Method: Rat recombinant PDE10A (rPDE10A2) was expressed in Sf9 cells using a recombinant rPDE10A baculovirus construct. Cells were harvested after 48 h of infection and the rPDE10A protein was purified by metal chelate chromatography on Ni-sepharose 6FF. Tested compounds were dissolved and diluted in 100% DMSO to a concentration 100 fold of the final concentration in the assay. Compound dilutions (0.4 μl) were added in 384 well plates to 20 μl of incubation buffer (50 mM Tris pH 7.8, 8.3 mM MgCl2, 1.7 mM EGTA). 10 μl of rPDE10A enzyme in incubation buffer was added and the reaction was started by addition of 10 μl substrate to a final concentration of 60 nM cAMP and 0.008 μCi ^3H-cAMP. The reaction was incubated for 60 minutes at room temperature. […] After sedimentation of the beads during 30 minutes the radioactivity was measured in a Perkin Elmer Topcount scintillation counter and results were expressed as cpm. For blanc values the enzyme was omitted from the reaction and replaced by incubation buffer. Control values were obtained by addition of a final concentration of 1% DMSO instead of compound. The same assay principle is applied for the measurement of the affinity of the compound for other members of the PDE family with appropriate modifications in incubation buffer, substrate concentration, incubation time and stop solution.

[2] = system: apomorphine-induced stereotypy in rats; assay: Apomorphine-induced stereotypy in rats (APO); assay type: in vivo; conditions: Rattus norvegicus, n.d.: found not active at threshold dose 2.5 mg/kg or 10 mg/kg (a)
Method: Apomorphine (1.0 mg/kg, i.v.)-induced stereotypy (compulsive sniffing, licking, chewing) was scored every 5 min over the first hour after injection of apomorphine, following a 1 hour interval pre-treatment with the test compound. The score system was: (3) pronounced, (2) moderate, (1) slight, and (0) absent.

[3] = po, * not soluble, tested orally as a suspension

Structure (SMILES) | IC50 [1] | ED50 ([2]; not further tested) | ED50 [2, 3]
COCCOc1ccc(-c2cnc3c(N4CCOCC4)ccnn23)cn1 [compound 52, 3-[6-(2-methoxyethoxy)-3-pyridinyl]-8-(4-morpholinyl)-imidazo[1,2-b]pyridazine] | 0.468 µM | > 2.5 mg/kg | 
CCOCc1ccc(-c2c(C)nc3c(N4CCOCC4)ccnn23)cn1 [compound 17, 3-[6-(ethoxymethyl)-3-pyridinyl]-2-methyl-8-(4-morpholinyl)-imidazo[1,2-b]pyridazine] | 0.055 µM |  | > 2.5 mg/kg
COC(C)(C)Cc1ccc(-c2c(C)nc3c(N4CCOCC4)cc(C4CC4)nn23)cn1 [compound 43, 6-cyclopropyl-3-[6-(2-methoxy-2-methylpropyl)-3-pyridinyl]-2-methyl-8-(4-morpholinyl)-imidazo[1,2-b]pyridazine] | 0.191 µM | > 2.5 mg/kg | 
COCCn1cc(-c2c(C(F)(F)F)nc3c(-c4ccncc4)ccnn23)cn1 [compound 122, 3-[1-(2-methoxyethyl)-1H-pyrazol-4-yl]-8-(4-pyridinyl)-2-(trifluoromethyl)-imidazo[1,2-b]pyridazine] | 0.0302 µM | > 2.5 mg/kg | 
COCCc1ccc(-c2c(C)nc3c(-c4ccncc4)cc(C)nn23)cn1 [compound 24, 3-[6-(2-methoxyethyl)-3-pyridinyl]-2,6-dimethyl-8-(4-pyridinyl)-imidazo[1,2-b]pyridazine] | 0.0794 µM | > 2.5 mg/kg | 
COCCOc1ccc(-c2c(C)nc3c(-c4cccnc4)ccnn23)cn1 [compound 9, 3-[6-(2-methoxyethoxy)-3-pyridinyl]-2-methyl-8-(3-pyridinyl)-imidazo[1,2-b]pyridazine] | 0.112 µM | > 2.5 mg/kg | 
COCCc1ccc(-c2c(C)nc3c(N4CCOCC4)cc(C)nn23)cn1 [compound 23, 3-[6-(2-methoxyethyl)-3-pyridinyl]-2,6-dimethyl-8-(4-morpholinyl)-imidazo[1,2-b]pyridazine] | 0.112 µM | > 2.5 mg/kg | 
COC(C)(C)Cc1ccc(-c2cnc3c(-c4ccncc4)ccnn23)cn1 [compound 60, 3-[6-(2-methoxy-2-methylpropyl)-3-pyridinyl]-8-(4-pyridinyl)-imidazo[1,2-b]pyridazine] | 0.191 µM | > 2.5 mg/kg | 
Cc1nc2c(-c3ccncc3)cc(C3CC3)nn2c1-c1ccc(C2CCOCC2)nc1 [compound 81, 6-cyclopropyl-2-methyl-8-(4-pyridinyl)-3-[6-(tetrahydro-2H-pyran-4-yl)-3-pyridinyl]-imidazo[1,2-b]pyridazine] | 0.195 µM | > 2.5 mg/kg | 
c1cc(N2CCOCC2)c2nc(C3CC3)c(-c3ccc(N4CCNCC4)nc3)n2n1 [compound 98, 2-cyclopropyl-8-(4-morpholinyl)-3-[6-(1-piperazinyl)-3-pyridinyl]-imidazo[1,2-b]pyridazine] | 0.11 µM | > 2.5 mg/kg | 
COCCOc1ccc(-c2c(C)nc3c(-c4ccncc4)cc(C4CC4)nn23)cn1 [compound 59, 6-cyclopropyl-3-[6-(2-methoxyethoxy)-3-pyridinyl]-2-methyl-8-(4-pyridinyl)-imidazo[1,2-b]pyridazine] | 0.234 µM | > 2.5 mg/kg | 
COCCn1cc(-c2c(C(C)C)nc3c(N4CCOCC4)ccnn23)cn1 [compound 120, 3-[1-(2-methoxyethyl)-1H-pyrazol-4-yl]-2-(1-methylethyl)-8-(4-morpholinyl)-imidazo[1,2-b]pyridazine] | 0.692 µM | > 10 mg/kg | 
COCCCc1ccc(-c2c(C)nc3c(N4CCOCC4)ccnn23)cn1 [compound 2, 3-[6-(3-methoxypropyl)-3-pyridinyl]-2-methyl-8-(4-morpholinyl)-imidazo[1,2-b]pyridazine] | 0.0468 µM | > 2.5 mg/kg | 
Cc1cc(-c2ccncc2)c2nc(C3CC3)c(-c3ccc(N4CCNCC4)nc3)n2n1 [compound 101, 2-cyclopropyl-6-methyl-3-[6-(1-piperazinyl)-3-pyridinyl]-8-(4-pyridinyl)-imidazo[1,2-b]pyridazine] | 0.178 µM | > 2.5 mg/kg | 
COCCc1ccc(-c2c(C)nc3c(-c4ccncc4)ccnn23)cn1 [compound 20, 3-[6-(2-methoxyethyl)-3-pyridinyl]-2-methyl-8-(4-pyridinyl)-imidazo[1,2-b]pyridazine] | 0.0275 µM | > 2.5 mg/kg | 
COCCc1ccc(-c2c(C3CC3)nc3c(-c4ccncc4)cc(C)nn23)cn1 [compound 56, 2-cyclopropyl-3-[6-(2-methoxyethyl)-3-pyridinyl]-6-methyl-8-(4-pyridinyl)-imidazo[1,2-b]pyridazine] | 0.0513 µM | > 2.5 mg/kg | 
COCCc1ccc(-c2c(OC)nc3c(N4CCOCC4)ccnn23)cn1 [compound 12, 2-methoxy-3-[6-(2-methoxyethyl)-3-pyridinyl]-8-(4-morpholinyl)-imidazo[1,2-b]pyridazine] | 0.224 µM | > 2.5 mg/kg | 
Cc1nc2c(N3CCOCC3)ccnn2c1-c1ccc(NC(C)C)nc1 [compound 90, N-(1-methylethyl)-5-[2-methyl-8-(4-morpholinyl)imidazo[1,2-b]pyridazin-3-yl]-2-pyridinamine] | 0.0676 µM | > 2.5 mg/kg | 
COC(C)(C)Cc1ccc(-c2cnc3c(N4CCOCC4)ccnn23)cn1 [compound 51, 3-[6-(2-methoxy-2-methylpropyl)-3-pyridinyl]-8-(4-morpholinyl)-imidazo[1,2-b]pyridazine] | 0.105 µM | > 2.5 mg/kg | 
COCCn1cc(-c2c(C3CC3)nc3c(N4CCOCC4)ccnn23)cn1 [compound 119, 2-cyclopropyl-3-[1-(2-methoxyethyl)-1H-pyrazol-4-yl]-8-(4-morpholinyl)-imidazo[1,2-b]pyridazine] | 0.0617 µM |  | > 10 mg/kg
COCC(C)(C)c1ccc(-c2c(C)nc3c(N4CCOCC4)ccnn23)cn1 [compound 4, 3-[6-(2-methoxy-1,1-dimethylethyl)-3-pyridinyl]-2-methyl-8-(4-morpholinyl)-imidazo[1,2-b]pyridazine] | 0.0407 µM | > 2.5 mg/kg | 
FC(F)(F)Cn1cc(-c2c(C3CC3)nc3c(-c4ccncc4)ccnn23)cn1 [compound 141, 2-cyclopropyl-8-(4-pyridinyl)-3-[1-(2,2,2-trifluoroethyl)-1H-pyrazol-4-yl]-imidazo[1,2-b]pyridazine] | 0.01 µM |  | > 2.5 mg/kg
Cc1nc2c(N3CCOCC3)ccnn2c1-c1ccc(C2CCOCC2)nc1 [compound 27, 2-methyl-8-(4-morpholinyl)-3-[6-(tetrahydro-2H-pyran-4-yl)-3-pyridinyl]-imidazo[1,2-b]pyridazine] | 0.0316 µM | > 2.5 mg/kg | 
COCCOc1cncc(-c2c(C)nc3c(N4CCOCC4)cc(C4CC4)nn23)c1 [compound 42, 6-cyclopropyl-3-[5-(2-methoxyethoxy)-3-pyridinyl]-2-methyl-8-(4-morpholinyl)-imidazo[1,2-b]pyridazine] | 0.0933 µM | > 2.5 mg/kg | 
COCCOc1ccc(-c2c(C)nc3c(N4CCOCC4)cc(C4CC4)nn23)cn1 [compound 41, 6-cyclopropyl-3-[6-(2-methoxyethoxy)-3-pyridinyl]-2-methyl-8-(4-morpholinyl)-imidazo[1,2-b]pyridazine] | 0.407 µM | > 2.5 mg/kg | 
CCc1ccc(-c2c(C3CC3)nc3c(N4CCOCC4)ccnn23)cn1 [compound 106, 2-cyclopropyl-3-(6-ethyl-3-pyridinyl)-8-(4-morpholinyl)-imidazo[1,2-b]pyridazine] | 0.0661 µM | > 2.5 mg/kg | 
